Test results from ChEMBL document CHEMBL1153984, “Ganoderic acid DM: anti-androgenic osteoclastogenesis inhibitor” (Bioorg Med Chem Lett, 2009).
Activity calls are given as the source filed them. The calls are words filed in the database; no cut-off is given here.

Assays:
[1] = (§1) Inhibition of 5-alpha-reductase in rat liver microsome assessed as conversion of [14C] testosterone to [14C] dihydrotestosterone; format: microsomes
[2] = system: PC-3; assay: Antiproliferative activity against human PC3 cells after 3 days by NR assay; format: functional, cell-based
[3] = molecular target: T1, Androgen receptor (Homo sapiens) (UniProt P10275); assay: Inhibition of DHT binding to human recombinant androgen receptor ligand binding domain at 15 uM by fluorescence polarization; design: scale not given: the % may be the effect or the level left
T1 sequence (whole entry): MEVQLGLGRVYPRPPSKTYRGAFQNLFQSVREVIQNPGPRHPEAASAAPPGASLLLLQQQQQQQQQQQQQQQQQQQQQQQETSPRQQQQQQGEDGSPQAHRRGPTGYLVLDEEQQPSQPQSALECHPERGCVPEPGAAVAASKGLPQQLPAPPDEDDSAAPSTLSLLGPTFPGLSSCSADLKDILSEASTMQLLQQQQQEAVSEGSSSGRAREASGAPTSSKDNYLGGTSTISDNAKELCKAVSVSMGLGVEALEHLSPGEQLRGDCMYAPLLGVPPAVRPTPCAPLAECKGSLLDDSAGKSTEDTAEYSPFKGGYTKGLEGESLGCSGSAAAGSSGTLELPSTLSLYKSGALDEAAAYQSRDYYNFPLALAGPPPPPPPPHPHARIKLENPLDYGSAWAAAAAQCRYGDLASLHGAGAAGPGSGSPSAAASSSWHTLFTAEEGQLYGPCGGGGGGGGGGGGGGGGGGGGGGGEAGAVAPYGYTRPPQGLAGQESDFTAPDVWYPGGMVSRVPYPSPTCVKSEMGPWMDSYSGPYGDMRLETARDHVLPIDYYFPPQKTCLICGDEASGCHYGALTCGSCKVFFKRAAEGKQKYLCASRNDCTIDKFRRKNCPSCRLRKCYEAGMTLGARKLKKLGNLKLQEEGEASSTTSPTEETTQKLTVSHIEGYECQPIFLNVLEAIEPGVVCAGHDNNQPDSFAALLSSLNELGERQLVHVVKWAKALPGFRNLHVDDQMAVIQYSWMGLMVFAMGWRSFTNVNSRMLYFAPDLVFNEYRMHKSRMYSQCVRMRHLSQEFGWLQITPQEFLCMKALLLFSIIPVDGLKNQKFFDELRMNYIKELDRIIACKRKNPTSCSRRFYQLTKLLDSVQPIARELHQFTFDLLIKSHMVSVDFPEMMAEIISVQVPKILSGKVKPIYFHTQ

[4] = species: Rattus norvegicus; assay: as §1; format: microsomes
[5] = system: LNCaP; assay: Growth inhibition of human LNCAP cells assessed as decrease in cell viability after 3 days by NR assay; format: functional, cell-based
[6] = system: LNCaP; assay: Growth inhibition against testosterone-induced human LNCAP cell proliferation assessed as decrease in cell viability after 3 dayssby NR assay; format: functional, cell-based
[7] = system: LNCaP; assay: Growth inhibition against dihydrotestosterone-induced human LNCAP cell proliferation assessed as decrease in cell viability after 3 dayssby NR assay; format: functional, cell-based
[8] = system: PC-3; assay: Antiproliferative activity against human PC3 cells at 12.5 to 50 uM after 3 days by NR assay; format: functional, cell-based
[9] = Inhibition of osteoclastogenesis in RANKL-stimulated mouse RAW264 cells at 12.5 uM after 3 days by TRAP assay; format: functional; settings: RAW264.7, 72 h
[10] = system: RAW264; assay: Inhibition of osteoclastogenesis in RANKL-stimulated mouse RAW264 cells at 25 uM after 3 days by TRAP assay; format: functional, cell-based
[11] = Cytotoxicity against mouse RAW264 cells assessed as cell number at 12.5 uM after 3 days by WST1 assay; format: cell-based; settings: raw264, 72 h
[12] = Cytotoxicity against mouse RAW264 cells assessed as viable cells at 25 uM after 3 days by WST1 assay; format: cell-based; settings: read-out: Activity

CC(C)(C)NC(=O)[C@H]1CC[C@H]2[C@@H]3CC[C@H]4NC(=O)C=C[C@]4(C)[C@H]3CC[C@]12C [FINASTERIDE]
IC50 [1]: 0.73 µM

C/C(=C\CC[C@@H](C)[C@H]1CC[C@@]2(C)C3=CC[C@H]4C(C)(C)[C@@H](O)CC[C@]4(C)C3=CC[C@]12C)CO
Activity [2]: inactive

C/C(=C/CC[C@@H](C)[C@H]1CC[C@@]2(C)C3=C(CC[C@]12C)[C@@]1(C)CCC(=O)C(C)(C)[C@@H]1CC3=O)C(=O)O [GANODERIC ACID DM]
Activity [3]: 50% | IC50 [1]: 10.6 µM | Activity [4]: Dose-dependent effect | Activity [5]: Dose-dependent effect | Activity [6]: Dose-dependent effect | Activity [7]: Dose-dependent effect | Activity [8]: Active | inhibition at 12.5 µM [9]: 40% | Activity [10]: inactive | Activity [11]: Non-toxic | viability at 72 h, 25 µM [12]: 72%

CC/C=C\C/C=C\C/C=C\CCCCCCCC(=O)O [LINOLENIC ACID]
IC50 [1]: 116 µM
